This is an account of results in patent US10221139B2, “Inhibitors of histone demethylases” (Gilead Sciences, Inc., priority 2012, dated 2019).

The IC50 is the concentration needed to halve the response being measured. Lower therefore signals greater potency.

Experiment [1] deals with T1, GASC1 (KDM4C) (Homo sapiens, UniProt Q9H3R0).
T1 construct: Full length; host or cells: U2OS
T1 sequence (Q9H3R0 1-1056): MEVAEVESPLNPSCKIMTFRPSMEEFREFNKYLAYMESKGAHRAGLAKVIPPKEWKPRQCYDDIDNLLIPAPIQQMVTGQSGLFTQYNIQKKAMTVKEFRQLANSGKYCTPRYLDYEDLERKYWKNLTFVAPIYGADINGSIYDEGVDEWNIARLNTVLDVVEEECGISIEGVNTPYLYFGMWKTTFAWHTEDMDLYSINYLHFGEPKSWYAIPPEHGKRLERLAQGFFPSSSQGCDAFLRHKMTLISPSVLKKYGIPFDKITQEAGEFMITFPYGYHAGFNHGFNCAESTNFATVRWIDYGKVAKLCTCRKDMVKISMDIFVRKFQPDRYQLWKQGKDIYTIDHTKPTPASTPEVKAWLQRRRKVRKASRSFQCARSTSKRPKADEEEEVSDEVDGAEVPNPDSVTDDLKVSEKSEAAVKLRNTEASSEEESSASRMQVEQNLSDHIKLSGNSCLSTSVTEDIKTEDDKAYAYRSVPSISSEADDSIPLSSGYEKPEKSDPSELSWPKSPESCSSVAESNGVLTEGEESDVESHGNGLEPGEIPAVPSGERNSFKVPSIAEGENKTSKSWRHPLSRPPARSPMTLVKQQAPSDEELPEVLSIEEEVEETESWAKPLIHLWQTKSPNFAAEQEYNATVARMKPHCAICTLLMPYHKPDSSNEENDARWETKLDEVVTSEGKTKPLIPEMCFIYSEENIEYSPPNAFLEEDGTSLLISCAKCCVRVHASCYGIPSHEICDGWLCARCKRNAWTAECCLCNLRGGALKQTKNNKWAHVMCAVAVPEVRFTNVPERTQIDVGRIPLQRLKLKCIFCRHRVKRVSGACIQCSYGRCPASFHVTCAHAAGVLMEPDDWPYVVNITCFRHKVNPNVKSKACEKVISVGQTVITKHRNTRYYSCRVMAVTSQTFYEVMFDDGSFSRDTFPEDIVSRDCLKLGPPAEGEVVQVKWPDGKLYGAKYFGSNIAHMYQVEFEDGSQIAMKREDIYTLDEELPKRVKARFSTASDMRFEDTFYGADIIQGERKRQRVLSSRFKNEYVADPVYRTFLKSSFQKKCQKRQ
The experiment in a line: Immunofluorescence assay in U2OS cells transfected with pCMVHA JMJD2C (H3K9me3 mark). The conditions noted are these: 20 hours. It is filed as cell-based. As for the experimental part: (§1) U2OS cells were seeded 24 hours before transfection. Transfection was performed with Fugene HD transfection reagent as recommended by the manufacturer. 6 hours after transfection, the cells were harvested and seeded into multi well plates into media containing compound. The media used was DMEM containing 5% FBS and pen/strep. 20 hours after incubation of cells with compounds, the cells were washed once in PBS, harvested by fixation with formaldehyde 4% aqueous solution, and washed 2 times in PBS. Subsequently, the cells were permeabilized in PBS with 0.2% Triton X-100 for 10 min at room temperature. Blocking was performed in PBS with 0.2% Triton X-100 and 5% FBS for 45 min at room temperature. The cells were incubated with primary antibodies diluted 1 μg/ml in blocking solution over night at 4° C. The primary antibodies used in the assays were HA.11 (Covance, MMS-101P) and the antibody detecting the mark specified in the Table 6 below. After incubation with primary antibodies, the cells were washed 3 times with PBS, incubated with secondary antibodies diluted 1:1000 (Alexa fluor 594 goat anti rabbit IgG, Invitrogen, A11012; Alexa flour 488 donkey anti mouse IgG, Invitrogen, A21202) and Hoechst, 20 μg/ml (Sigma, 33342) in blocking solution, and washed again 3 times with PBS. Finally, PBS was added and high throughput imaging and analysis were performed by an IN Cell Analyzer 1000 (GE Healthcare). The robot software analyzed individual cells and divided these into HA^+ (transfected cells) and HA^− (non-transfected cells). The IC50 values in Table 7 below were based on an average measure of the staining of the mark specified in the Table 6 below in the transfected cells.

In experiment [2] the target is T2, PLU1 (KDM5B) (Homo sapiens, UniProt Q9UGL1).
T2 construct: (1-752); host or cells: U2OS
T2 sequence (Q9UGL1 1-752): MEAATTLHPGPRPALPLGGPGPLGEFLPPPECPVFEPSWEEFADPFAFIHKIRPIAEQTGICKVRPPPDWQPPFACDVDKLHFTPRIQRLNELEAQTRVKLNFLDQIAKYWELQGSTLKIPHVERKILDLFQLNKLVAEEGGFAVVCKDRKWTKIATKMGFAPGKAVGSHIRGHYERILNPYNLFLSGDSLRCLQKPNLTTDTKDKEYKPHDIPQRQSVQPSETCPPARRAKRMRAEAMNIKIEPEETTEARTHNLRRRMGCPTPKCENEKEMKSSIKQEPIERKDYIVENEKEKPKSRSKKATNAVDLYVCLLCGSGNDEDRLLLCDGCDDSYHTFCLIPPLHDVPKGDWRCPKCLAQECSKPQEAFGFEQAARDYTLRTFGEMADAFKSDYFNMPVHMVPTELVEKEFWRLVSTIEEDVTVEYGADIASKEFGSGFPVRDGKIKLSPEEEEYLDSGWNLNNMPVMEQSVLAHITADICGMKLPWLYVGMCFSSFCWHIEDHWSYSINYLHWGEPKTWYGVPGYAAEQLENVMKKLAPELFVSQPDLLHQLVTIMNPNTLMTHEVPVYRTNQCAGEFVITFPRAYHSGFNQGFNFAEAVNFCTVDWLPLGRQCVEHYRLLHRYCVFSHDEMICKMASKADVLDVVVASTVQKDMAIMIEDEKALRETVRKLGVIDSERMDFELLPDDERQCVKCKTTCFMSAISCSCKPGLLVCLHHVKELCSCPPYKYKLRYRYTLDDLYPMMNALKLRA
The experiment is described as follows: Immunofluorescence assay in U2OS cells transfected with pCMVHA PLU1 (H3K4me2 mark). The settings on record: 20 hours. It is filed as cell-based. As for the experimental part: as §1

A value given as a limit tells only on which side of the number the result lay.

Regarding `CCN(CC)CCCCNCc1cc(C(=O)O)ccn1` [drawing 327, 2-({[4-(diethylamino)butyl]amino}methyl)pyridine-4-carboxylic acid], the concentration for half-maximal inhibition (IC50) in experiment [1] and in experiment [2] was 1 to 50 µM each time.

Take `C=CCN(CC=C)C(=O)CNCc1cc(C(=O)O)ccn1` [drawing 309, 2-[({[bis(prop-2-en-1-yl)carbamoyl]methyl}amino)methyl]pyridine-4-carboxylic acid]: the IC50 in experiment [1] and in experiment [2] was 1 to 50 µM each time.

`CN(CCCc1nccn1C)C(=O)CNCc1cc(C(=O)O)ccn1` [drawing 312, 2-{[({methyl[3-(1-methyl-1H-imidazol-2-yl)propyl]carbamoyl}methyl)amino]methyl}pyridine-4-carboxylic acid]: the concentration for half-maximal inhibition (IC50) in experiment [1] and in experiment [2] was 1 to 50 µM each time.

Take `Cn1c(CNCc2cc(C(=O)O)ccn2)nc2ccccc21` [drawing 307, 2-({[(1-methyl-1H-1,3-benzodiazol-2-yl)methyl)amino}methyl) pyridine-4-carboxylic acid]: the IC50 in experiment [1] was greater than 50 µM; in experiment [2] it was 1 to 50 µM.

In the case of `C#CCN(C)Cc1cc(C(=O)O)ccn1` [drawing 302, 2-{[methyl(prop-2-yn-1-yl)amino]methyl}pyridine-4-carboxylic acid], the IC50 in experiment [1] and in experiment [2] was greater than 50 µM each time.

Regarding `CN(C)CCN(C)Cc1cc(C(=O)O)ccn1` [drawing 301, 2-({[2-(dimethylamino)ethyl](methyl)amino}methyl)pyridine-4-carboxylic acid], the IC50 in experiment [1] and in experiment [2] was greater than 50 µM throughout.

Turning to `O=C(O)c1ccnc(CNC[C@@H](O)CO)c1` [drawing 298, 2-({[(2R)-2,3-dihydroxypropyl]amino}methyl)pyridine-4-carboxylic acid], the half-inhibitory concentration (IC50) in experiment [1] and in experiment [2] was greater than 50 µM throughout.

As to `O=C(O)c1ccnc(CNCCCN2CCCC2)c1` [drawing 325, 2-({[3-(pyrrolidin-1-yl)propyl]amino}methyl)pyridine-4-carboxylic acid], the concentration for half-maximal inhibition (IC50) in experiment [1] and in experiment [2] was 1 to 50 µM throughout.
